Test [1] concerns the target T1, HDAC2 (Homo sapiens, UniProt Q92769).
T1 construct: purchased Proteros
The test is described as follows: Reporter displacement assay (HDAC2). Format: binding.

The target of test [2] is T1, HDAC2. The test is described as follows: Reporter displacement assay (HDAC2). The following applies: 20 nM HDAC2, 180 nM reporter probe, read after 4 hours; Kd by Cheng Prusoff equation. Format: binding. On the procedure: HDAC2 containing a C-terminal HIS-Tag (Proteros) and fluorescently-labeled anti-HIS-antibody are diluted in one vial in assay buffer 50 mM Tris, pH 8.0, 1 mM DTT, 150 mM NaCl, and 0.01% Tween20. Components are pre-incubated for 30 min, then a small volume of reporter probe (Proteros) is added from a highly concentrated stock and incubation is continued for another 30 min. […] Ten µl/well of pre-formed complex are transferred into 384 well assay plates (Corning). Compounds to be profiled are serially diluted from 1x10^1 - 5.7x10^-5 mM in DMSO and 60 nl are added to assay plates by pintool transfer (CybiWell, Cybio). Fluorescence intensity signal is read after 4 hours in a Pherastar FS (BMG Labtech) at 337/665 nm. For Kd determination, percent probe displacement values are calculated for each compound concentration and plotted against the compound concentration. […] Since the reporter probe is used at a concentration reflecting its own Kd value, compound Kd values can be calculated according to the Cheng Prusoff equation. […] Table 4. HDAC1 and HDAC2 Kd Values for Exemplary Compounds Useful in the Invention

Test [3] addresses HDAC1 (Homo sapiens, UniProt Q13547). The test is described as follows: Reporter displacement assay (HDAC1). Format: binding.
Test [4] deals with recombinant human HDACs. The test is described as follows: HDAC enzymatic assay (LabChip capillary electrophoresis). Format: biochemical. The following applies: 5 nM HDAC enzyme, 1 uM substrate, 5 hours pre-incubation, 17 hours reaction at 25°C; isoform not given. An outline of the steps: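 Recombinant human HDAC (5 nM) was pre-incubated with compound for 5 h at 25 °C, then reacted with 1 µM FAM-TSRHK(Ac)KL substrate for 17 h at 25 °C in HEPES pH 7.5, 1% DMSO. Reactions were stopped with SDS, and substrate and product were separated by capillary electrophoresis and read as P/(S+P). IC50 was fitted by 4-parameter logistic from 12-point 3-fold dilutions starting at 30 µM, run in duplicate.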

Test [5] deals with SH-SY5Y cells. Put plainly: Cell assay in SH-SY5Y cells with HDAC-Glo 2 reagent. It is filed as cell-based. The following applies: Homo sapiens, 5 h, five hours at 37°C, CI-994 at 100 uM defined as 100% inhibition. On the procedure: SH-SY5Y cells (Sigma) were cultured in Eagle's Modified Essential Medium supplemented with 10% fetal bovine serum and pen/strep. Twenty-four hours prior to compound dosing 20 uL of cells were plated in white 384 well plates at a density of 1,500 cells/well. Compounds were serially diluted in neat DMSO and then diluted 1:100 v/v into media without FBS and mixed. Media was removed from the plated cells and the diluted compounds in serum free media (1% v/v final DMSO) were added and incubated at 37°C for five hours. Ten uL of HDAC-Glo 2 reagent with 0.1% Triton X-100 was then added, the plate was mixed and allowed to develop at room temperature for 100 minutes. Plates were then read with a Spectramax LMax luminometer employing a 0.4s integration time. Dose response curves were constructed with normalized data where CI-994 at 100 uM was defined as 100% inhibition and DMSO alone as 0% inhibition. Table 5. IC50 and EC50 Values for Exemplary Compounds Useful in the Invention

SMILES strings stand for the structures. A value given as a limit tells only on which side of the number the result lay.

T1 sequence (Q92769 whole entry): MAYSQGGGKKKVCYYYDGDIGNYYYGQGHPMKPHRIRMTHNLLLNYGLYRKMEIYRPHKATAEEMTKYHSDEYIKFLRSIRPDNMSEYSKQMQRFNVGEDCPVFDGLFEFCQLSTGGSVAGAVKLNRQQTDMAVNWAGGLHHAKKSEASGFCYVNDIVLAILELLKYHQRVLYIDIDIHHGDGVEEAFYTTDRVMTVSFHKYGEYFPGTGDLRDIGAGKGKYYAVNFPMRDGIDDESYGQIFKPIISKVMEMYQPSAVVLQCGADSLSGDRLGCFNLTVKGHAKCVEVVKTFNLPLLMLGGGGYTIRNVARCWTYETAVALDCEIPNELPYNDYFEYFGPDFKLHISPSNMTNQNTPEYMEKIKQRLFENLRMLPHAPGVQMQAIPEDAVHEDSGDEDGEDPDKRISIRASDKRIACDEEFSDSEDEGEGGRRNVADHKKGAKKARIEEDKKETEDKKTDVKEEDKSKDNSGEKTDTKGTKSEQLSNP
Chain of HDAC1 (Q13547 whole entry, canonical isoform): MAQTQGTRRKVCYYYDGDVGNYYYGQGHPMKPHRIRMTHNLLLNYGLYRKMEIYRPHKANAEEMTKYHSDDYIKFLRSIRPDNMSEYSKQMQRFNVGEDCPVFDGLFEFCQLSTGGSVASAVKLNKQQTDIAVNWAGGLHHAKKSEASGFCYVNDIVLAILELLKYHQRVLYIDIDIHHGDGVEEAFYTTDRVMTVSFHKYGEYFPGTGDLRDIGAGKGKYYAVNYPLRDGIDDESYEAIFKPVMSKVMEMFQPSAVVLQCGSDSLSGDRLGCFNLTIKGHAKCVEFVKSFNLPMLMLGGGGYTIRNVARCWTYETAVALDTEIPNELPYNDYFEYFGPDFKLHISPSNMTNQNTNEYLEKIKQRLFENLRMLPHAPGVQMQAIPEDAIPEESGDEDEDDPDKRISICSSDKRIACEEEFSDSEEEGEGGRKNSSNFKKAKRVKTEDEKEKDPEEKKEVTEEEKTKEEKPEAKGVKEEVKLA

In general, Kd refers to the concentration at which binding is half-saturated. A high value points to a looser complex. With `Nc1cc(F)c(-c2ccc(F)cc2)cc1NC(=O)N1Cc2ccncc2C1` [Compound 100], the residence time stood at 703 min in test [1] and 196 min in test [3]. In addition, the equilibrium dissociation constant (Kd) in test [2] and in test [3] was 100 to 500 nM throughout.

With `Nc1nn(-c2ccccc2)cc1NC(=O)N1Cc2ccncc2C1` [Compound 101], the equilibrium dissociation constant (Kd) in test [2] and in test [3] was more than 5000 nM throughout.

As to `Nc1nn(-c2ccc(F)cc2)cc1NC(=O)N1Cc2ccncc2C1` [Compound 102], the dissociation constant Kd in test [2] and in test [3] was more than 5000 nM throughout.

On to `Nc1nn(-c2ccncc2)cc1NC(=O)N1Cc2ccncc2C1` [Compound 103], for which the dissociation constant (Kd) in test [2] and in test [3] was more than 5000 nM each time.

Turning to `Nc1ncc(-c2ccc(F)cc2)cc1NC(=O)N1CC2CCCC2C1` (centres unmarked) [Compound 104], the dissociation constant (Kd) in test [2] and in test [3] was more than 5000 nM each time.

Consider `Nc1cnc(-c2ccc(F)cc2)cc1NC(=O)N1CCCC1` [Compound 105], for which the residence time in test [1] came to 634 min; in test [3], 851 min. Further, the dissociation constant Kd in test [2] and in test [3] was 500 to 5000 nM each time.

Take `Nc1cnc(-c2ccc(F)cc2)cc1NC(=O)C1CCOCC1` [Compound 106]: the Kd in test [2] and in test [3] was more than 5000 nM in each case. The compound further returned a residence time in test [3] of 121 min.

With `Nc1ccc(-c2ccc(F)cc2)nc1NC(=O)N1CCCC1` [Compound 107], the residence time was determined as 1280 min in test [1] and 653 min in test [3]. Also, the Kd in test [2] and in test [3] was 500 to 5000 nM in each case.

As for `Nc1cnc(-c2ccncc2)cc1NC(=O)N1CCCC1` [Compound 108], the residence time in test [1] was found to be 1430 min; in test [3], 401 min. Besides, the Kd in test [2] and in test [3] was 500 to 5000 nM throughout.

For the compound `Nc1ccc(-c2ccc(F)cc2)nc1NC(=O)C1CCOCC1` [Compound 109], the residence time came to 264 min in test [1] and 14 min in test [3]. Further, the Kd was 500 to 5000 nM in test [2] and more than 5000 nM in test [3].

For `Nc1cnc(-c2ccc(F)cc2)nc1NC(=O)N1CCCC1` [Compound 110], the Kd is more than 5000 nM in test [2] and 500 to 5000 nM in test [3]. The compound also returned a residence time in test [3] of 688 min.

For the compound `Nc1ccc(-c2ccncc2)nc1NC(=O)N1CCCC1` [Compound 111], the residence time in test [1] was found to be 540 min; in test [3], 151 min. The Kd in test [2] and in test [3] was more than 5000 nM throughout.

In the case of `Nc1ccc(-c2ccc(F)cc2)c(F)c1NC(=O)N1CCCC1` [Compound 112], the residence time in test [1] came out at 790 min; in test [3], 329 min. Moreover, the Kd in test [2] and in test [3] was 100 to 500 nM throughout.

Take `Nc1ccc(-c2ccc(F)cc2)c(F)c1NC(=O)N1Cc2nccnc2C1` [Compound 113]: the residence time came to 609 min in test [1] and 350 min in test [3]. The figures for the Kd in test [2] and in test [3] were 100 to 500 nM and less than 100 nM, respectively.

Take `Nc1cc(F)c(-c2ccc(F)cc2)cc1NC(=O)N1CCCC1` [Compound 114]: the Kd in test [2] was more than 5000 nM. In test [3], this compound registered a dissociation constant Kd of more than 5000 nM and a residence time of 49 min.

As for `Nc1cc(F)c(-c2ccc(F)cc2)cc1NC(=O)C1CCOCC1` [Compound 115], the residence time in test [1] is 185 min. Further, the Kd in test [2] was 500 to 5000 nM; in test [3] it was more than 5000 nM.

Turning to `Nc1cc(F)c(-c2ccc(F)c(F)c2)cc1NC(=O)N1CCCC1` [Compound 116], the figures for the residence time in test [1] and in test [3] were 114 min and 87 min, respectively. The Kd in test [2] and in test [3] was 500 to 5000 nM each time.

For the compound `Nc1ccc(-c2ccc(F)c(F)c2)c(F)c1NC(=O)N1CCCC1` [Compound 117], in test [1], the residence time came out at 42 min. For the same compound, the equilibrium dissociation constant (Kd) in test [2] and in test [3] was more than 5000 nM in each case.

As to `Nc1ccc(-c2ccc(F)cc2)c(F)c1NC(=O)C1CCOCC1` [Compound 118], the residence time in test [1] stood at 176 min; in test [3], 69 min. Further, the dissociation constant (Kd) in test [2] and in test [3] was 500 to 5000 nM in each case.

On to `Nc1cc(F)c(-c2ccc(F)cc2)cc1NC(=O)N1Cc2nccnc2C1` [Compound 119], for which the residence time in test [1] stood at 1200 min; in test [3], 126 min. Further, the Kd in test [2] and in test [3] was 100 to 500 nM throughout.

Take `Nc1ccc(-c2ccc(F)cc2)nc1NC(=O)N1Cc2nccnc2C1` [Compound 120]: the residence time in test [1] came to 1170 min; in test [3] it was 830 min. For the same compound, the Kd in test [2] was 500 to 5000 nM; in test [3], 100 to 500 nM.

`Nc1cnc(-c2ccc(F)cc2)nc1NC(=O)N1Cc2nccnc2C1` [Compound 121]: the residence time in test [1] was 1200 min; in test [3], 682 min. Also, the Kd is more than 5000 nM in test [2] and 500 to 5000 nM in test [3].

`Nc1cn(-c2ccccc2)nc1NC(=O)N1Cc2ccncc2C1` [Compound 122]: the residence time in test [1] was 2380 min; in test [3], 572 min. The Kd in test [2] and in test [3] was 100 to 500 nM throughout.

One may read the IC50 as the concentration that inhibits the measured activity by half. By EC50 is commonly meant the midpoint of the concentration-response curve. A low value points to greater potency. On to `Nc1ccc(-c2ccc(F)cc2)nc1NC(=O)N1Cc2cccnc2C1` [Compound 397], for which the half-inhibitory concentration (IC50) in test [4] fell in the range of 100 to 500 nM. The same compound showed a concentration for a half-maximal effect (EC50) in test [5] of 100 to 500 nM.

As to `Nc1ccc(-c2ccc(F)cc2)nc1NC(=O)N1Cc2ccc(CN3CCCC3)cc2C1` [Compound 405], the IC50 in test [4] lay within 100 to 500 nM. Also, the EC50 in test [5] was in the range of 100 to 500 nM.

Source of the values: patent publication EP3319959B1, “HETERO-HALO INHIBITORS OF HISTONE DEACETYLASE” (Alkermes, Inc., priority 2015, dated 2017).
